Results on 12 molecules are retold here after article PMC6598542, “Synthesis of a new series of 3-functionalised-1-phenyl-1,2,3-triazole sulfamoylbenzamides as carbonic anhydrase I, II, IV and IX inhibitors” (Journal of Enzyme Inhibition and Medicinal Chemistry, 2019).

T1 sequence (P22748 19-284): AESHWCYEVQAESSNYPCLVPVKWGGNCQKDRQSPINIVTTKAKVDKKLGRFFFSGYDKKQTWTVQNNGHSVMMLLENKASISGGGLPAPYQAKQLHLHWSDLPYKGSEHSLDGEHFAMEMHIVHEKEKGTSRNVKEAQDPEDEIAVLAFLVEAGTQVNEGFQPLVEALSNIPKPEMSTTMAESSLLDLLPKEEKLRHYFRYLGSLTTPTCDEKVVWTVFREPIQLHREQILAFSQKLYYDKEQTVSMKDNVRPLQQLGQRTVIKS

One test addresses T1, hCA IV (Homo sapiens, UniProt P22748).
T1 construct: gene CA4
Description: stopped-flow CO2 hydration. Type of test: biochemical.
Conditions: not given
The method in brief:
(§1)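 Inhibition of recombinant human isozymes was measured by stopped-flow CO2 hydration, and Ki was obtained by non-linear least-squares fitting with the Cheng-Prusoff equation. Enzyme and inhibitor were first preincubated for 10 min at room temperature, then the reaction was followed for 5–10 s at 557 nm and 25 °C in 10 mM Hepes pH 7.4 containing 0.2 mM Phenol Red and 0.1 M Na2SO4 or NaClO4, with CO2-saturated water as substrate. Each value is the mean of at least three determinations, from at least seven inhibitor concentrations down to 0.01 nM tested in triplicate.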
On to `N#Cc1cccc(-n2cc(CNC(=O)c3ccc(F)c(S(N)(=O)=O)c3)nn2)c1` [6s, N-((1–(3-cyanophenyl)-1H-1,2,3-triazol-4-yl)methyl)-4-fluoro-3-sulfamoylbenzamide], for which the Ki is 3400 nM.
`COc1ccc(-n2cc(CNC(=O)c3ccc(Cl)c(S(N)(=O)=O)c3)nn2)cc1` [6k, 4-Chloro-N-((1–(4-methoxyphenyl)-1H-1,2,3-triazol-4-yl)methyl)-3-sulfamoylbenzamide]: the Ki came to 80 nM.
On the same count and under the same terms, the figure for `NS(=O)(=O)c1cc(C(=O)NCc2cn(-c3cccc(F)c3)nn2)ccc1F` [6q, 4-Fluoro-N-((1–(3-fluorophenyl)-1H-1,2,3-triazol-4-yl)methyl)-3-sulfamoylbenzamide] is 5310 nM; for `NS(=O)(=O)c1cc(C(=O)NCc2cn(-c3ccccc3)nn2)ccc1F` [6n, 4-Fluoro-N-((1-phenyl-1H-1,2,3-triazol-4-yl)methyl)-3-sulfamoylbenzamide] it is 240 nM.

For another test, the target named is T2, hCA II (Homo sapiens, UniProt P00918).
T2 construct: gene CA2; recombinant, cytosolic isoform
Description: stopped-flow CO2 hydration. The settings on record: CO2 substrate, pH […] Hepes, […] °C, […] min preincubation; read-out: hCAII. Format: biochemical. The method, boiled down: as §1
Regarding `COc1ccc(-n2cc(CNC(=O)c3cccc(S(N)(=O)=O)c3)nn2)cc1` [6f, N-((1–(4-methoxyphenyl)-1H-1,2,3-triazol-4-yl)methyl)-3-sulfamoylbenzamide], the Ki worked out at 9010 nM.

The test is the same for the next values; noted with them: read-out: hCAII.
Consider `N#Cc1cccc(-n2cc(CNC(=O)c3ccc(F)c(S(N)(=O)=O)c3)nn2)c1` [6s, N-((1–(3-cyanophenyl)-1H-1,2,3-triazol-4-yl)methyl)-4-fluoro-3-sulfamoylbenzamide], for which the Ki stood at 402 nM.
In the case of `COc1ccc(-n2cc(CNC(=O)c3ccc(Cl)c(S(N)(=O)=O)c3)nn2)cc1` [6k, 4-Chloro-N-((1–(4-methoxyphenyl)-1H-1,2,3-triazol-4-yl)methyl)-3-sulfamoylbenzamide], the Ki is 56.5 nM.
On the same count and under the same terms, the figure for `NS(=O)(=O)c1cccc(C(=O)NCc2cn(-c3ccccc3)nn2)c1` [6a, N-((1-phenyl-1H-1,2,3-triazol-4-yl)methyl)-3-sulfamoylbenzamide] is 4490 nM; for `NS(=O)(=O)c1cc(C(=O)NCc2cn(-c3cccc(F)c3)nn2)ccc1F` [6q, 4-Fluoro-N-((1–(3-fluorophenyl)-1H-1,2,3-triazol-4-yl)methyl)-3-sulfamoylbenzamide] it is 329 nM; for `NS(=O)(=O)c1cccc(C(=O)NCc2cn(-c3cccc([N+](=O)[O-])c3)nn2)c1` [6c, N-((1–(3-nitrophenyl)-1H-1,2,3-triazol-4-yl)methyl)-3-sulfamoylbenzamide] it is 9270 nM.
Still for that read-out and setting: with `NS(=O)(=O)c1cc(C(=O)NCc2cn(-c3ccccc3)nn2)ccc1F` [6n, 4-Fluoro-N-((1-phenyl-1H-1,2,3-triazol-4-yl)methyl)-3-sulfamoylbenzamide] the figure was 49.7 nM; with `NS(=O)(=O)c1cc(C(=O)O)ccc1Cl` [3b, 4-Chloro-3-sulfamoylbenzoic acid], 1380 nM.
On the same count and under the same terms, with `C#CCNC(=O)c1cccc(S(N)(=O)=O)c1` [4a, N-(prop-2-yn-1-yl)-3-sulfamoylbenzamide] the figure was 514 nM.
For `N#Cc1cccc(-n2cc(CNC(=O)c3cccc(S(N)(=O)=O)c3)nn2)c1` [6e, N-((1–(3-cyanophenyl)-1H-1,2,3-triazol-4-yl)methyl)-3-sulfamoylbenzamide], the Ki is 2360 nM.
In the case of `NS(=O)(=O)c1cccc(C(=O)NCc2cn(-c3cccc(F)c3)nn2)c1` [6d, N-((1–(3-fluorophenyl)-1H-1,2,3-triazol-4-yl)methyl)-3-sulfamoylbenzamide], the Ki was 2970 nM.
Same read-out and setting: with `COc1cc(-n2cc(CNC(=O)c3cccc(S(N)(=O)=O)c3)nn2)cc(OC)c1OC` [6b, 3-Sulfamoyl-N-((1–(3,4,5-trimethoxyphenyl)-1H-1,2,3-triazol-4-yl)methyl)benzamide] the figure was 8970 nM.

Another test concerns the target T3, hCA IX (Homo sapiens, UniProt Q16790).
T3 construct: gene CA9; recombinant, transmembrane isoform
Description: stopped-flow CO2 hydration. Format: biochemical.
Conditions: not given
The method, boiled down:
as §1
`N#Cc1cccc(-n2cc(CNC(=O)c3ccc(F)c(S(N)(=O)=O)c3)nn2)c1` [6s, N-((1–(3-cyanophenyl)-1H-1,2,3-triazol-4-yl)methyl)-4-fluoro-3-sulfamoylbenzamide] had a Ki of 67.9 nM.
Consider `COc1ccc(-n2cc(CNC(=O)c3ccc(Cl)c(S(N)(=O)=O)c3)nn2)cc1` [6k, 4-Chloro-N-((1–(4-methoxyphenyl)-1H-1,2,3-triazol-4-yl)methyl)-3-sulfamoylbenzamide], for which the Ki was determined as 41.6 nM.
Still for that read-out and setting: the figure for `NS(=O)(=O)c1cccc(C(=O)NCc2cn(-c3ccccc3)nn2)c1` [6a, N-((1-phenyl-1H-1,2,3-triazol-4-yl)methyl)-3-sulfamoylbenzamide] is 7980 nM.
Still for that read-out and setting: with `NS(=O)(=O)c1cc(C(=O)NCc2cn(-c3cccc(F)c3)nn2)ccc1F` [6q, 4-Fluoro-N-((1–(3-fluorophenyl)-1H-1,2,3-triazol-4-yl)methyl)-3-sulfamoylbenzamide] the figure was 30.8 nM; with `NS(=O)(=O)c1cccc(C(=O)NCc2cn(-c3cccc([N+](=O)[O-])c3)nn2)c1` [6c, N-((1–(3-nitrophenyl)-1H-1,2,3-triazol-4-yl)methyl)-3-sulfamoylbenzamide], 6920 nM.
Same read-out and setting: with `NS(=O)(=O)c1cc(C(=O)NCc2cn(-c3ccccc3)nn2)ccc1F` [6n, 4-Fluoro-N-((1-phenyl-1H-1,2,3-triazol-4-yl)methyl)-3-sulfamoylbenzamide] the figure was 84.5 nM; with `NS(=O)(=O)c1cc(C(=O)O)ccc1Cl` [3b, 4-Chloro-3-sulfamoylbenzoic acid], 8980 nM.
As to `C#CCNC(=O)c1cccc(S(N)(=O)=O)c1` [4a, N-(prop-2-yn-1-yl)-3-sulfamoylbenzamide], the Ki came to 9360 nM.
Regarding `N#Cc1cccc(-n2cc(CNC(=O)c3cccc(S(N)(=O)=O)c3)nn2)c1` [6e, N-((1–(3-cyanophenyl)-1H-1,2,3-triazol-4-yl)methyl)-3-sulfamoylbenzamide], the Ki came out at 3190 nM.
`NS(=O)(=O)c1cccc(C(=O)NCc2cn(-c3cccc(F)c3)nn2)c1` [6d, N-((1–(3-fluorophenyl)-1H-1,2,3-triazol-4-yl)methyl)-3-sulfamoylbenzamide] returned a Ki of 7420 nM.
The same measure, in the same setting: with `COc1cc(-n2cc(CNC(=O)c3cccc(S(N)(=O)=O)c3)nn2)cc(OC)c1OC` [6b, 3-Sulfamoyl-N-((1–(3,4,5-trimethoxyphenyl)-1H-1,2,3-triazol-4-yl)methyl)benzamide] the figure was 4900 nM.

The same test, now with this note: CO2 substrate, pH […] Hepes, […] °C, […] min preincubation.
Regarding `COc1ccc(-n2cc(CNC(=O)c3cccc(S(N)(=O)=O)c3)nn2)cc1` [6f, N-((1–(4-methoxyphenyl)-1H-1,2,3-triazol-4-yl)methyl)-3-sulfamoylbenzamide], the Ki worked out at 6750 nM.

In another test the target is T4, hCA I (Homo sapiens, UniProt P00915).
T4 construct: gene CA1; recombinant, cytosolic isoform
T4 sequence (P00915 2-261): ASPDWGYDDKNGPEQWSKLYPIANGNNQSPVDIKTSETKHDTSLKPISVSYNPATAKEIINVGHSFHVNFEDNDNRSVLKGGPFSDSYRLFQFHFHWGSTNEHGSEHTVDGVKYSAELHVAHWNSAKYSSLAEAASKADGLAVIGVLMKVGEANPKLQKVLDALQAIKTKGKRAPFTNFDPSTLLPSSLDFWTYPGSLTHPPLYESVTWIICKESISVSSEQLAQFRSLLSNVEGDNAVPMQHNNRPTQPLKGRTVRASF
The test can be described thus: stopped-flow CO2 hydration.
Conditions: not given
Type of test: biochemical. The method, boiled down:
as §1
Turning to `N#Cc1cccc(-n2cc(CNC(=O)c3ccc(F)c(S(N)(=O)=O)c3)nn2)c1` [6s, N-((1–(3-cyanophenyl)-1H-1,2,3-triazol-4-yl)methyl)-4-fluoro-3-sulfamoylbenzamide], the Ki is 696 nM.
Still for that read-out and setting: with `COc1ccc(-n2cc(CNC(=O)c3ccc(Cl)c(S(N)(=O)=O)c3)nn2)cc1` [6k, 4-Chloro-N-((1–(4-methoxyphenyl)-1H-1,2,3-triazol-4-yl)methyl)-3-sulfamoylbenzamide] the figure was 86.7 nM; with `NS(=O)(=O)c1cccc(C(=O)NCc2cn(-c3ccccc3)nn2)c1` [6a, N-((1-phenyl-1H-1,2,3-triazol-4-yl)methyl)-3-sulfamoylbenzamide], 753 nM; with `NS(=O)(=O)c1cc(C(=O)NCc2cn(-c3cccc(F)c3)nn2)ccc1F` [6q, 4-Fluoro-N-((1–(3-fluorophenyl)-1H-1,2,3-triazol-4-yl)methyl)-3-sulfamoylbenzamide], 426 nM.
Still for that read-out and setting: the figure for `NS(=O)(=O)c1cccc(C(=O)NCc2cn(-c3cccc([N+](=O)[O-])c3)nn2)c1` [6c, N-((1–(3-nitrophenyl)-1H-1,2,3-triazol-4-yl)methyl)-3-sulfamoylbenzamide] is 952 nM.
Still for that read-out and setting: with `NS(=O)(=O)c1cc(C(=O)NCc2cn(-c3ccccc3)nn2)ccc1F` [6n, 4-Fluoro-N-((1-phenyl-1H-1,2,3-triazol-4-yl)methyl)-3-sulfamoylbenzamide] the figure was 890 nM.
Molecule `NS(=O)(=O)c1cc(C(=O)O)ccc1Cl` [3b, 4-Chloro-3-sulfamoylbenzoic acid] displayed a Ki of 8850 nM.
Still for that read-out and setting: with `C#CCNC(=O)c1cccc(S(N)(=O)=O)c1` [4a, N-(prop-2-yn-1-yl)-3-sulfamoylbenzamide] the figure was 9280 nM.
The same measure, in the same setting: the figure for `N#Cc1cccc(-n2cc(CNC(=O)c3cccc(S(N)(=O)=O)c3)nn2)c1` [6e, N-((1–(3-cyanophenyl)-1H-1,2,3-triazol-4-yl)methyl)-3-sulfamoylbenzamide] is 431 nM.
Still for that read-out and setting: with `NS(=O)(=O)c1cccc(C(=O)NCc2cn(-c3cccc(F)c3)nn2)c1` [6d, N-((1–(3-fluorophenyl)-1H-1,2,3-triazol-4-yl)methyl)-3-sulfamoylbenzamide] the figure was 867 nM; with `COc1cc(-n2cc(CNC(=O)c3cccc(S(N)(=O)=O)c3)nn2)cc(OC)c1OC` [6b, 3-Sulfamoyl-N-((1–(3,4,5-trimethoxyphenyl)-1H-1,2,3-triazol-4-yl)methyl)benzamide], 855 nM.

The same test, now with this note: CO2 substrate, pH […] Hepes, […] °C, […] min preincubation.
Molecule `COc1ccc(-n2cc(CNC(=O)c3cccc(S(N)(=O)=O)c3)nn2)cc1` [6f, N-((1–(4-methoxyphenyl)-1H-1,2,3-triazol-4-yl)methyl)-3-sulfamoylbenzamide] returned a Ki of 888 nM.

The next test addresses T1, hCA IV. The test can be described thus: biochemical. Also noted: Stopped-flow CO2 hydration assay, phenol red at 557 nm, 10 min preincubation, recombinant hCA; Ki via Cheng-Prusoff.
Conditions: not given
How it is done: An SX.18 MV-R Applied Photophysics (Oxford, UK) stopped-flow instrument has been used for assaying the CA catalyzed CO2 hydration activity. Phenol Red (at a concentration of 0.2 mM) has been used as indicator, working at the absorbance maximum of 557 nm, with 10 mM Hepes (pH 7.4) as buffer, 0.1 M Na2SO4 or NaClO4 (for maintaining constant the ionic strength; these anions are not inhibitory in the used concentration), following the CA-catalyzed CO2 hydration reaction for a period of 5–10 s. Saturated CO2 solutions in water at 25 °C were used as substrate. Stock solutions of inhibitors were prepared at a concentration of 10 μM (in DMSO-water 1:1, v/v) and dilutions up to 0.01 nM done with the assay buffer mentioned above. At least seven different inhibitor concentrations have been used for measuring the inhibition constant. Inhibitor and enzyme solutions were preincubated together for 10 min at room temperature prior to assay, in order to allow for the formation of the E-I complex. Triplicate experiments were done for each inhibitor concentration, and the values reported throughout the paper are the mean of such results. The inhibition constants were obtained by non-linear least-squares methods using the Cheng-Prusoff equation, as reported earlier, and represent the mean from at least three different determinations. All CA isozymes used here were recombinant proteins obtained as reported earlier by our group[10]^c,[25]^,[26]. The newly synthesised compounds 3-sulfamoylbenzamide linked 1,2,3-triazoles (Figure 4) (6a–z) as well as the intermediates (3a–d) and (4a–d) (listed in Table 1) were screened for their CA inhibitory activities against four physiologically significant isoforms, the cytosolic hCA I (associated with edema) and II (associated with glaucoma) as well as the membrane bound hCA IV (associated with glaucoma and retinitis pigmentosa) and transmembrane hCA IX (associated with tumors) by means of the stopped flow carbon dioxide assays[29] in comparison to AAZ as standard CAI (Table 2).
`NS(=O)(=O)c1cccc(C(=O)NCc2cn(-c3ccccc3)nn2)c1` [6a, N-((1-phenyl-1H-1,2,3-triazol-4-yl)methyl)-3-sulfamoylbenzamide]: the Ki worked out at 9420 nM.
The same measure, in the same setting: the figure for `NS(=O)(=O)c1cc(C(=O)O)ccc1Cl` [3b, 4-Chloro-3-sulfamoylbenzoic acid] is 2470 nM; for `C#CCNC(=O)c1cccc(S(N)(=O)=O)c1` [4a, N-(prop-2-yn-1-yl)-3-sulfamoylbenzamide] it is 8460 nM.
On the same count and under the same terms, with `N#Cc1cccc(-n2cc(CNC(=O)c3cccc(S(N)(=O)=O)c3)nn2)c1` [6e, N-((1–(3-cyanophenyl)-1H-1,2,3-triazol-4-yl)methyl)-3-sulfamoylbenzamide] the figure was 9300 nM.
Same read-out and setting: the figure for `NS(=O)(=O)c1cccc(C(=O)NCc2cn(-c3cccc(F)c3)nn2)c1` [6d, N-((1–(3-fluorophenyl)-1H-1,2,3-triazol-4-yl)methyl)-3-sulfamoylbenzamide] is 8840 nM.
